The subject of assay [1] is pre-iPS cells. Nature of the assay: Adding inhibitors to pre-iPS cells in the presence of foetal calf serum plus LIF. The assay is classed as cell-based, mouse. To be noted: for effect on Oct4-GFP activation: foetal calf serum plus LIF, inhibitor alone. The source says:
We also examined the effect of adding inhibitors in the presence of foetal calf serum plus LIF. The addition of 2i induced stable activation of Oct4-GFP in around 10% of emerging colonies. […] The reduced frequency compared with serum-free 2i culture may be because the ability of PD0325901 to suppress Erk activation is counteracted by serum factors.

Assay [2] concerns Oct4-GFP expressing I-iPS cells. Description: Oct4-GFP reporter activity of partially reprogrammed cells cultured in Fgf2 and activin, with activin receptor inhibitor. In kind it is cell-based, mouse. To be noted: serum free. The source says: Culture of FACS purified GFP expressing incomplete (I) iPS cells in Fgf2 and activin (left) and subsequently on addition of activin receptor inhibitor SB431542 (right). To further investigate the phenotype of these partially reprogrammed cells we assessed Oct4 reporter activity in different culture environments. In conventional ES cell culture using the self renewal cytokine Leukaemia Inhibitory Factor (LIF) and serum in presence or absence of feeders, Oct4-GFP expression was not maintained. In contrast, reporter expression stabilized when cells were cultured serum free in the presence of Fgf2 and activin (FIG. 2). These are conditions used for the propagation of EpiSCs derived from post-implantation embryos (Brons et al., 2007; Tesar et al., 2007). […] We conclude that NS cells are efficiently converted by the reprogramming factors into a heterogeneous cell population with certain properties of EpiSCs rather than ES cells.

With `Cc1c[nH]c(-c2cnc(NCCNc3ccc(C#N)cn3)nc2-c2ccc(Cl)cc2Cl)n1` [GSK3 inhibitor, CHIR99021], the “effect on Oct4-GFP activation” value in assay [1] was “no discernible effect”. As for `O=C(NOC[C@H](O)CO)c1ccc(F)c(F)c1Nc1ccc(I)cc1F` [MEK inhibitor, PD0325901], the “expression of Nanog and Rex1” value in assay [1] (cells expanded in serum and LIF) is “acquired expression of Nanog and Rex1”. The “effect on Oct4-GFP activation” value in assay [1] is “comparable to 2i”. With `NC(=O)c1ccc(-c2nc(-c3ccc4c(c3)OCO4)c(-c3ccccn3)[nH]2)cc1` [SB43154212, SB431542], the “effect of inhibitor on Oct4-GFP reporter activity and cells” value in assay [2] is “loss of reporter activity, cell death and differentiation”.

Source of the values: patent US20100330677A1, “Improved Reprogramming of Mammalian Cells, and Cells Obtained” (Cambridge Enterprise Limited, priority 2008, published 2010).
